This note sets out measurements from patent US20200247849A1, “PEPTIDE AGONISTS AND ANTAGONISTS OF TLR4 ACTIVATION” (PEPTICOM LTD, priority 2016, published 2020).

For test [1], the system named is TLR4 with MD2 or CD14 co-receptor. Briefly: Reporter gene (SEAP) PAMP assay in NIH3T3 cells expressing TLR4 with MD2 or CD14 co-receptor. The class given is cell-based. Conditions: summary of FIGS. 6A-6V. An excerpt: FIGS. 6A-6V show the dose response inhibitor/activator effects of the designed peptides using a reporter gene assay. The reporter gene assay is composed of NIH3T3 cells transfected with either MD2 or CD14 along with TLR4 and the NF-κB-inducible reporter gene Secreted Alkaline Phosphatase (SEAP) to monitor TLR4 activation (Burger-[…] al. 2010, A new cell-based innate immune receptor assay for the examination of receptor activity, ligand specificity, signaling pathways and the detection of pyrogens. […] The receptors are coupled to for the detection of inhibitory activity, cells were treated with the peptide prior to exposure to LPS and the response to LPS is measured at variable peptide doses (as labeled). The detection of cell activation was performed using the peptide alone, at variable doses, as indicated in the respective graphs. The following presents in more details the experimental procedures. Experimental setup: The cell-based Assay is performed with different NIH3T3 reporter cell lines (NIH 3T3 PRR SEAP-TLR4/CD14 or -TLR4/MD2) and the control cell line NIH 3T3 SEAP. The NIH3T3 SEAP cell line is used in order to determine the background of the alkaline phosphatase expression. It is a cell line stably transfected with only the reporter gene plasmid. For each assay a vial of the master cell bank is revitalized and seeded in a standard cell culture flask (75 cm^2 T-Flask) at day one. Cells are cultured in 20 ml culture media (DMEM supplemented with 10% FCS (heat inactivated), 50 units/ ml penicillin, 0.05 mg/ ml streptomycin and 2 mmol/ L L-glutamine). The cells are cultured at 37° C. in a 5% CO2 humidified atmosphere. At Day 1: For the PAMP Assay cells are seeded in a 96-well plate at a density of 0.3.10^5 cells/well in a final volume of 100 μl culture media (DMEM, 10% FCS (heat inactivated)). To ensure equal culture conditions the 96-well cell culture plates are placed side by side and cultivated in a humidified CO2 incubator (37° C. and 5% CO2). […] After a cultivation period of 24 h the media is removed and replaced with the respective volume of fresh media (DMEM, 0.5% FCS (heat inactivated)).The lyophilized peptides are stored in a freezer at -20° C. upon arrival. For the experiments they are dissolved in DMSO (to the highest possible concentration). Before opening the peptides are allowed to equilibrate to room temperature (in order to reduce the uptake of moisture). For each experiment the stock solution is diluted in DMEM to the appropriate working concentration. […] Sonication was also used to help dissolve the peptides. Immediately after replacing the media, the diluted peptides are applied in a serial dilution to the cells and directly after that the agonist is added to the cells. After adding peptide and […] the final volume in each well of a 96 well plate amounts 100 μl/well. The culture medium containing 0.5% FCS is used as a negative reference item. The induction is performed for 18 h at 37° C. and 5% CO2. At Day 3: To determine the final SEAP value, 50 μl of the supernatant is carefully transferred in a new 96-well plate (Greiner-F-plate) and 50 μl of the substrate (pNPP; p-nitrophenyl phosphate) is added. SEAP catalyzes the hydrolysis of pNPP to the final product para-nitrophenol (yellow) which can be detected by a photometric analysis using an UV-VIS reader at 405 nm. […] The results of FIGS. 6A-6V with respect to peptide activity are summarized in Table 1 above with respect to the type of effect of the respective peptide (activation/inhibition) and with respect to the corresponding co-receptor (MD2/CD14). Data concerning SEQ ID No. 22 with respect to co-receptor CD14 is in preparation.

Test [2] has as its system primary mouse macrophages (expressing TLR4, MD2 and CD14). The test is described as follows: TNF-a release from primary mouse macrophages exposed to LPS. In kind it is cell-based. Conditions: FIG. 7. The source says: The top graph presents TNF-a release from primary mouse macrophages exposed to LPS treated with either peptide SEQ ID No. 9 or a control peptide while the bottom graph presents TNF-a release from primary mouse macrophages exposed to PAM3 treated with either peptide SEQ ID No. 9 or a control peptide. […] This method had been previously described (Lerner et al. 2011, Heparanase powers a chronic inflammatory circuit that promotes colitis-associated tumorigenesis in mice. J Clin Invest. 121(5): 1709-1721).

Turning to ILFMGMKWL (Inhibitor) [SEQ ID No. 9], the Co-Receptor/s entry in test [1] (co-receptor (MD2/CD14) via which the effect occurs) is “MD2”. Moreover, in test [1] (type of effect (activation/inhibition) on TLR4), the Activity result is recorded as “Inhibitor”. For the same sequence, the “effect on LPS-induced TNF-a release” value in test [2] is listed as “inhibitory effect”.
